The ΔTm is the shift of the melting midpoint relative to a reference.

Read-outs that look alike come from different tables or passages of the source.

One compound from paper PMC12036814 (Angewandte Chemie (International Ed. in English), 2025) can be followed below.

One data set has as its system HEK‐293 cells. Put plainly: Whole proteome analysis (LC-MS/MS, LFQ) of treated HEK-293 cells. Also on record: regulation of ETC complex I and IV subunits: dose or concentration left out as unconfirmed. To be noted: […] μM, 3 h to 14 days, versus control.
The next data set relates to PDL-hTERT cells. Kind of data set: Live/dead staining and microscopy (morphology). The data set is classed as cell-based. Also on record: dose or concentration left out as unconfirmed. Conditions: […] µM, 7 days.
The target in another data set is NUDT1 (Homo sapiens, UniProt P36639). Kind of data set: Thermal protein profiling (TPP) in intact HEK293 cells. The data set is classed as cell-based. Also on record: endogenous in cells; host or cells: HEK293. To be noted: 1 h. On the procedure: incubated in a thermoshaker (600 rpm, 16 h, 37 °C). The digest was stopped by adding 10 μL formic
acid (FA) and vortexing followed by centrifugation (12,000 ×g, 3 min, room temperature). 50 mg
SepPak C18 columns (Waters, Milford, USA, Cat# WAT054960) were equilibrated by gravity flow two
times with 1 mL acetonitrile and three times with 1 mL aqueous 0.1% trifluoroacetic acid (TFA) solution.
Subsequently, the samples were loaded by gravity flow, washed three times with 1 mL aqueous 0.1%
TFA solution and once with 0.5 mL aqueous 0.5% formic acid (F A) solution. Elution of peptides into
new 2.0 mL Protein LoBind Eppendorf tubes was performed by two times addition of 250 μL elution
buffer (80% acetonitrile, 0.5% FA) by gravity flow followed by 250 μL elution buffer by vacuum flow
until all liquid was eluted from the column. The eluates were lyophilized. Before MS measurement the
(brief centrifugation after each step).
Thermal protein profiling (TPP)
The experiment was performed similarly to TPP-TR experiments described by Franken et al. with minor
modifications.5 HEK293 cells were grown in 8 T175 flasks to approx. 80-90% confluency. Per replicate
volume of 0.1 N HCl as vehicle control. Per condition two replicates were used, leading to a total of 8
T175 flasks. The cells were washed with PBS, detached with accutase, the two flask per replicate […]

A further data set concerns the target T1, AIFM1 (Homo sapiens, UniProt O95831).
T1 construct: made in house; host or cells: E. coli Rosetta2
Kind of data set: Gel-based labelling of recombinant AIFM1 spiked into HEK-293 lysate. The data set is classed as binding. To be noted: excess compound added prior to probe. The protocol: AIFM1 expression & purification
Recombinant AIFM1 was expressed in a Rosetta2 E. coli strain. Bacterial growth was conducted in LB media supplemented with riboflavin and FAD shaking at 37°C and 180 rpm. Expression was induced with 1.0 mM IPTG and incubated for further 16 h before harvesting. Cells were harvested on ice in PBS and cell pellets stored at -20°C. Cells were lysed by French press and the 6xHis-tagged constructs were purified by Immobilized Metal Affinity Chromatography using Ni Sepharose (6 Fast Flow, GE). The centrifugation-cleared bacterial lysate was bound to beads in binding buffer (200 mM NaCl, 20 mM Tris/Cl pH = 7.4). […]
For gel-based fluorescence labelling of recombinant AIFM1, 1.7 µM recombinant protein was spiked - in to PBS or PBS -diluted HEK293 cell lysate ( 100 µg per reaction sample). […]
Click Master-mix (8 µL, 100 µM TAMRA-azide, Baseclick, Neuried, Germany, Cat# BCFA-008-10, 500 µM BTTAA ligand, Jena Bioscience, Jena, Germany, CLK -067, 1 mM CuSO4) was added and the CuAAC reaction started by addition of 2 µL of aq. sodium ascorbate (c end= 2 mM). […] Fluorescence scanning was performed using a Las-3000 fluorescence darkbox (Fujifilm, Minato, Japan) with a Fujinon VRF 43LMD Lens, 605DF40 filter and 520 nm EPI excitation wavelength and loading controls were developed with Coomassie stain afterwards. […]

T1 sequence (O95831 102-613): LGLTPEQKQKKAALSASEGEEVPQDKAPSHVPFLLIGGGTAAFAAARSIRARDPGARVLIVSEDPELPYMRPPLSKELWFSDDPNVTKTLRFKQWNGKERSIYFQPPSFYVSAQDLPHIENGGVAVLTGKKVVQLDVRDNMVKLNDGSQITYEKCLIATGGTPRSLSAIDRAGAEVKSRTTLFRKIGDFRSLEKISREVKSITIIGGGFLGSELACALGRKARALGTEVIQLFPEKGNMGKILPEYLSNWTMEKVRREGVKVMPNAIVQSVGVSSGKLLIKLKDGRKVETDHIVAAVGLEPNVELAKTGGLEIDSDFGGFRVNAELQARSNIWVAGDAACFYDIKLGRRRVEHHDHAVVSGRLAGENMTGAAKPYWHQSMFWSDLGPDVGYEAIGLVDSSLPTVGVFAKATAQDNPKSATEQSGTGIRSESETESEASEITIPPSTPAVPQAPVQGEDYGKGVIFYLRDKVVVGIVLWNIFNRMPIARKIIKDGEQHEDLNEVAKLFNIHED
Method for PDL-hTERT cells: For PDL-hTERT cells (9 x 10^4 cells /well) were plated in each well of 6 -well plates (Greiner Bio-One,
Frickenhausen, Germany) and incubated for 3 days at 37 °C and 5% CO2. Afterwards, cells were treated
Afterwards, the cells were stained with 1 µM calcein
acetoxymethyl (calcein AM) and 10 µM propidium iodide, diluted from 100 µM and 1 mM stock
solutions respectively. The diluent was given to the cells in a mixture of 1:1 PBS to culture medium.
Calcein AM is cell permeable and in living cells is converted to fluorescent calcein by intracellular
estarases, thus labelling the cells in green colour. Propidium iodide is a fluorescent dye that can only
traverse cells with damaged membranes, thus marking dead cells in red colour (to note: dead cells
frequently detach during the staining procedure). Last, cells were imaged on day 1, 4, and 7 in phase -
contrast, FITC (green) and Cy3 (red) fluorescent channels using Zeiss AxioVert.A1 microscope equipped
with AxioCam ICc1 camera (Carl Zeiss, Göttingen, Germany). Each image was automatically processed
using the “Min/Max” option provided by the micriscope software Zen 2.3 lite (Carl Zeiss). The
experiment was repeated three independent times (n = 3), each performed in duplicate wells for
control and Cipro-containing groups.

Consider `O=C(O)c1cn(C2CC2)c2cc(N3CCNCC3)c(F)cc2c1=O` [Ciprofloxacin], for which the “regulation of ETC complex I and IV subunits” value with HEK‐293 cells is “pronounced and time‐dependent down‐regulation of both complexes”. Also, the cell morphology result in the data set with PDL-hTERT cells was “cell rounding”. Further, the results for the ΔTm at 70 µM at NUDT1 (read-out: ΔTm Rep. 1) and at NUDT1 (read-out: ΔTm Rep. 2) were 3.29 °C and 3.4 °C, respectively. At AIFM1, the “competition of Cipro P1 labelling of recombinant AIFM1” value is given as “strong reduction of signal intensity”.
